According to ChEMBL document CHEMBL1201862, “PubChem BioAssay data set” (2004):
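Assay format: 96-well plates, 48-hour exposure. At the GI50, growth is halved.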 Activity calls are given as the source filed them. No stated cut-off is given here; in the data, active = GI50 up to about 1.1 µM and inactive = higher.

Tests used:
Assay in all cases: NCI tumour cell line growth inhibition, 48 h
COLO 205 = system: COLO 205
HL-60 = system: HL-60
HOP-62 = system: HOP-62
IGROV-1 = system: IGROV-1
KM12 = system: KM12
Malme-3M = system: Malme-3M
OVCAR-4 = system: OVCAR-4
RPMI-8226 = system: RPMI-8226
RXF 393 = system: RXF 393
SF-295 = system: SF-295
SF-539 = system: SF-539
SK-MEL-5 = system: SK-MEL-5
SNB-19 = system: SNB-19
SNB-75 = system: SNB-75
TK-10 = system: TK-10
U-251 = system: U-251
SR = system: SR

Measured: GI50

O=C1c2ccccc2C(=O)N1CCCOCc1cnc(O)nc1O
inactive: COLO 205 > 100 µM | HL-60 > 100 µM | HOP-62 > 100 µM | IGROV-1 > 100 µM | KM12 > 100 µM | Malme-3M > 100 µM | OVCAR-4 > 100 µM | RPMI-8226 > 100 µM | RXF 393 > 100 µM | SF-295 > 100 µM | SF-539 > 100 µM | SK-MEL-5 > 100 µM | SNB-19 > 100 µM | SNB-75 > 100 µM | TK-10 > 100 µM | U-251 > 100 µM

CCOC(=O)c1ccc(/N=N\c2ccc(N(CCC#N)CCC#N)cc2C)cc1
inactive: COLO 205 > 100 µM | HL-60 > 100 µM | HOP-62 > 100 µM | IGROV-1 > 100 µM | KM12 > 100 µM | Malme-3M > 100 µM | OVCAR-4 > 100 µM | RPMI-8226 > 100 µM | RXF 393 > 100 µM | SF-295 > 100 µM | SF-539 72.9 µM | SK-MEL-5 > 100 µM | SNB-19 > 100 µM | TK-10 > 100 µM | U-251 > 100 µM

CC1=NN(c2ccccc2)C(=O)C1/N=N/c1ccc(Br)c(C)c1 (stereo unspecified)
inactive: COLO 205 > 100 µM | HL-60 > 100 µM | HOP-62 > 100 µM | IGROV-1 > 100 µM | KM12 > 100 µM | Malme-3M > 100 µM | OVCAR-4 > 100 µM | RPMI-8226 > 100 µM | RXF 393 > 100 µM | SF-295 > 100 µM | SF-539 > 100 µM | SK-MEL-5 > 100 µM | SNB-19 > 100 µM | SNB-75 > 100 µM | TK-10 > 100 µM | U-251 > 100 µM

NC1=NC2=C(CCCC2)C(c2cccs2)S1 (stereo unspecified)
inactive: COLO 205 > 100 µM | HL-60 8.73 µM | HOP-62 > 100 µM | IGROV-1 > 100 µM | KM12 > 100 µM | Malme-3M 92.9 µM | OVCAR-4 86.5 µM | RPMI-8226 61.7 µM | RXF 393 38.5 µM | SF-295 > 100 µM | SF-539 > 100 µM | SK-MEL-5 54.5 µM | SNB-19 > 100 µM | SNB-75 > 100 µM | TK-10 > 100 µM | U-251 > 100 µM

CCCC1C(=O)CCc2c(OC)ccc(OC)c21 (stereo unspecified)
inactive: COLO 205 > 100 µM | HL-60 73.8 µM | HOP-62 > 100 µM | IGROV-1 > 100 µM | KM12 > 100 µM | Malme-3M > 100 µM | OVCAR-4 > 100 µM | RPMI-8226 65.9 µM | RXF 393 > 100 µM | SF-295 > 100 µM | SF-539 > 100 µM | SK-MEL-5 > 100 µM | SNB-19 99.8 µM | SNB-75 57.5 µM | TK-10 > 100 µM | U-251 > 100 µM

CC(C)(C)NC(=O)C12C3C4C1C1C2C3C41I (stereo unspecified)
inactive: COLO 205 > 100 µM | HL-60 > 100 µM | KM12 > 100 µM | Malme-3M > 100 µM | RPMI-8226 > 100 µM | SF-295 > 100 µM | SF-539 > 100 µM | SNB-19 > 100 µM | SR > 100 µM | TK-10 > 100 µM | U-251 > 100 µM

Cc1cccc(C)c1NC(=O)C(=O)C(C(=O)c1ccccc1-c1ccccc1)C1OC(=O)c2ccccc21 (stereo unspecified)
inactive: COLO 205 19.2 µM | HL-60 21 µM | HOP-62 16.9 µM | IGROV-1 25.6 µM | KM12 20.9 µM | Malme-3M 12.5 µM | RPMI-8226 15.8 µM | RXF 393 12.8 µM | SF-295 31.3 µM | SF-539 14.8 µM | SK-MEL-5 17.8 µM | SNB-75 22 µM | TK-10 26.7 µM | U-251 14.2 µM

[N-]=[N+]=Nc1ccccc1Oc1ccccc1
inactive: COLO 205 > 100 µM | HL-60 > 100 µM | HOP-62 > 100 µM | IGROV-1 > 100 µM | KM12 > 100 µM | OVCAR-4 > 100 µM | RPMI-8226 > 100 µM | SF-295 > 100 µM | SF-539 > 100 µM | SK-MEL-5 > 100 µM | SNB-19 > 100 µM | SNB-75 > 100 µM | SR > 100 µM | TK-10 > 100 µM | U-251 > 100 µM

O=C(NCCCN1CCN(CCCNC(=O)Nc2cc(Cl)ccc2Cl)CC1)Nc1cc(Cl)ccc1Cl
inactive: COLO 205 45.5 µM | HL-60 34.4 µM | HOP-62 52.6 µM | IGROV-1 > 100 µM | KM12 > 100 µM | Malme-3M 24.3 µM | OVCAR-4 34 µM | RPMI-8226 80 µM | RXF 393 > 100 µM | SF-295 49.3 µM | SF-539 44.5 µM | SK-MEL-5 39.7 µM | SNB-19 46.3 µM | SNB-75 15 µM | TK-10 > 100 µM | U-251 50.7 µM

Cc1cccc(NC2=NC(=O)C(CC(=O)Nc3ccc(Cl)cc3C)S2)c1 (stereo unspecified)
inactive: COLO 205 > 100 µM | HL-60 > 100 µM | HOP-62 > 100 µM | IGROV-1 > 100 µM | KM12 > 100 µM | Malme-3M > 100 µM | OVCAR-4 > 100 µM | RPMI-8226 > 100 µM | RXF 393 > 100 µM | SF-295 > 100 µM | SF-539 > 100 µM | SK-MEL-5 > 100 µM | SNB-19 > 100 µM | SNB-75 > 100 µM | TK-10 > 100 µM

CC1=C(c2cc(C(=O)Nc3ccc(Cl)cc3)nc(S)n2)Sc2ccccc2N1
inactive: COLO 205 > 100 µM | HL-60 > 100 µM | HOP-62 > 100 µM | IGROV-1 > 100 µM | KM12 > 100 µM | Malme-3M > 100 µM | OVCAR-4 > 100 µM | RXF 393 > 100 µM | SF-295 > 100 µM | SF-539 > 100 µM | SK-MEL-5 > 100 µM | SNB-19 > 100 µM | SNB-75 > 100 µM | TK-10 > 100 µM | U-251 > 100 µM

Nc1c(-c2ccc(Cl)cc2)[n+]([O-])c2ccccc2[n+]1[O-]
inactive: COLO 205 > 100 µM | HL-60 32.4 µM | HOP-62 > 100 µM | IGROV-1 > 100 µM | KM12 > 100 µM | Malme-3M > 100 µM | OVCAR-4 69.3 µM | RPMI-8226 34.5 µM | SF-295 87.7 µM | SF-539 > 100 µM | SK-MEL-5 > 100 µM | SNB-19 34.8 µM | SNB-75 67.3 µM | TK-10 > 100 µM | U-251 62.2 µM

Cc1cc(NS(=O)(=O)c2ccc(NC(=O)c3cccc4c(Nc5ccc(S(=O)(=O)Nc6cc(C)on6)cc5)c5ccc(Cl)cc5nc34)cc2)no1
inactive: COLO 205 56.1 µM | HL-60 35 µM | HOP-62 61.5 µM | IGROV-1 59.4 µM | KM12 69.2 µM | Malme-3M > 100 µM | OVCAR-4 49.5 µM | RPMI-8226 47.1 µM | RXF 393 29.2 µM | SF-295 > 100 µM | SF-539 37.7 µM | SK-MEL-5 56.4 µM | SNB-19 28.1 µM | SNB-75 19.7 µM | TK-10 > 100 µM | U-251 35.5 µM
